This is an account of results in patent US9527851B2, “Pyrrole six-membered heteroaryl ring derivative, preparation method thereof, and medicinal uses thereof” (Jiangsu Hengrui Medicine Co., Ltd., priority 2011, dated 2016).

Data set [1] deals with JAK1 kinase (Homo sapiens (Human), UniProt P23458). The experiment in a line: Assay for inhibiting JAK1 kinase (in vitro kinase assay, HRP anti-phosphotyrosine antibody/TMB absorbance). Format: biochemical. As to conditions: 20 μM ATP, 50 minutes at room temperature; read-out: IC50 (JAK1/Bio). The method, then: In vitro activity of compounds of the present invention for inhibiting JAK1 kinase was determined by the following method.
IC50 values of test compounds was calculated from the data of the test compounds in inhibiting the activity of JAK1 kinase at different concentrations.

Data set [2] deals with T cells. Put plainly: Proliferation inhibition assay on T cells (PBMC, anti-CD3, IL-2, ATPlite). The format is cell-based. As to conditions: Homo sapiens, T-cell; IL-2 10 ng/mL, 72 hours. From the text:
The following in vitro assay is to determine the activity of the compounds of the present invention for inhibiting the proliferation of T cells.
The activity is represented by the IC50 value.
The general procedures of the assay are given as follows: first, the PBMC cell line (purchased from Shanghai Blood Center) was centrifuged, the supernatant was removed, and the cells counted. […] Then, the cells were washed 3 times, resuspended, diluted to 2×10^6/mL, and then mixed with recombinant human IL-2 (purchased from Peprotech, Catalog Number: 200-02) to a concentration of 10 ng/mL, and cultured for another 3 days. The cells were washed again 3 times, and diluted to 5×10^5/mL. 80 μL of the cells were seeded in each well of a 96-well cell culture plate. […] To the control wells, 10 μL culture medium were added. The plate was placed in an incubator. After incubating for 1 hr, negative control wells were mixed with 10 μL of culture medium, and the rest of the wells were mixed with IL-2 to a concentration of 10 ng/mL, and incubated continuously for 72 hours. […] IC50 values were calculated from the data of inhibition rates at various concentrations of the test compounds.
(§1) The biological activity of the compounds of the present invention was tested by using the assay described above.
On the technique in general: ATP-based viability assays read luminescence as a measure of living cells.

Data set [3] in a line: Pharmacokinetics assay in rats, intragastric administration, plasma by LC/MS/MS. The format is in vivo, Sprague-Dawley (SD) rats. Conditions: both sexes, Sprague-Dawley, rat, plasma, po, SD rats, 10 mg/kg; for Vd/F: read-out: Apparent Distribution Volume Vz/F; for AUC: read-out: Area Under Curve AUC; for CL/F: read-out: Clearance CL/F; for half-life: read-out: Half-Life t½ (converted); for Cmax: read-out: Plasma Conc. Cmax. The method, boiled down: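 Fasted SD rats of both sexes dosed intragastrically at 10.0 mg/kg as a 1.0 mg/mL DMSO suspension; fed 2 h post-dose. Plasma sampled at various time points, protein-precipitated with methanol plus internal standard, and analyzed by LC-MS/MS.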

Data set [4] concerns the target JAK3 kinase (Homo sapiens (Human), UniProt P52333). Put plainly: Assay for inhibiting JAK3 kinase (in vitro kinase assay, HRP anti-phosphotyrosine antibody/TMB absorbance). Format: biochemical. As to conditions: 50 minutes at room temperature; read-out: IC50 (JAK3/Bio). The method, then: In vitro activity of compounds of the present invention for inhibiting JAK3 kinase was determined by the following method.

In data set [5] the target is JAK2 kinase (Homo sapiens (Human), UniProt O60674). Put plainly: Assay for inhibiting JAK2 kinase (in vitro kinase assay, HRP anti-phosphotyrosine antibody/TMB absorbance). Conditions: 20 μM ATP, 50 minutes at room temperature; read-out: IC50 (JAK2/Bio). Format: biochemical. The protocol: In vitro activity of compounds of the present invention for inhibiting JAK2 kinase was determined by the following method.

Data set [6] deals with human erythroid leukemia cell line TF-1. Put plainly: Proliferation inhibition assay on human erythroid leukemia cell line TF-1 mediated by IL-4 (Cell Counting Kit-8). Format: cell-based. Conditions: TF-1 cells, 10 ng/mL IL-4, 72 hours.
Description: The following in vitro assay is to determine the activity of the compounds of the present invention for inhibiting the proliferation of human erythroid leukemia cell line TF-1.
The activity is represented by the IC50 value, which can not only reflect the activity of a test compound for inhibiting JAK2 and JAK3 kinase, but can also reflect the selectivity of a test compound for JAK2 and JAK3 kinase.
The general procedures of the assay are given as follows: first, the TF-1 cells (purchased from ATCC, Catalog number: CRL 2003) were seeded in a 96-well cell culture plate at a suitable cell concentration (8000 cells/mL medium), and 10 ng/mL IL-4 (Invitrogen, Catalog Number: PHC0044) were added to each well. Then 10× serial concentration gradient of test compounds solutions (10000, 1000, 100, 10, 1 and 0.1 nM) were prepared, and then the 10× compound solutions prepared above were added to the 96-well cell culture plate containing IL-4. After the cell plates were cultured continuously for 72 hours, the activity of the test compounds for inhibiting the cell proliferation was determined by using a Cell Counting Kit-8 (purchased from Dojindo, Catalog Number: CK04). IC50 values were calculated from the data of the inhibition rates at various concentrations of the test compounds.
as §1
(In general: Formazan colour is commonly taken as a measure of viable cells.)

As a reminder, the AUC is concentration integrated over time. In general, half-life refers to the time needed for the level to fall by half in the phase considered. Usually MRT stands for the average time that molecules of a dose stay in the body. Usually Cmax stands for the maximum level reached in the sampled fluid or tissue.

JAK2 kinase, sequence (O60674 whole entry): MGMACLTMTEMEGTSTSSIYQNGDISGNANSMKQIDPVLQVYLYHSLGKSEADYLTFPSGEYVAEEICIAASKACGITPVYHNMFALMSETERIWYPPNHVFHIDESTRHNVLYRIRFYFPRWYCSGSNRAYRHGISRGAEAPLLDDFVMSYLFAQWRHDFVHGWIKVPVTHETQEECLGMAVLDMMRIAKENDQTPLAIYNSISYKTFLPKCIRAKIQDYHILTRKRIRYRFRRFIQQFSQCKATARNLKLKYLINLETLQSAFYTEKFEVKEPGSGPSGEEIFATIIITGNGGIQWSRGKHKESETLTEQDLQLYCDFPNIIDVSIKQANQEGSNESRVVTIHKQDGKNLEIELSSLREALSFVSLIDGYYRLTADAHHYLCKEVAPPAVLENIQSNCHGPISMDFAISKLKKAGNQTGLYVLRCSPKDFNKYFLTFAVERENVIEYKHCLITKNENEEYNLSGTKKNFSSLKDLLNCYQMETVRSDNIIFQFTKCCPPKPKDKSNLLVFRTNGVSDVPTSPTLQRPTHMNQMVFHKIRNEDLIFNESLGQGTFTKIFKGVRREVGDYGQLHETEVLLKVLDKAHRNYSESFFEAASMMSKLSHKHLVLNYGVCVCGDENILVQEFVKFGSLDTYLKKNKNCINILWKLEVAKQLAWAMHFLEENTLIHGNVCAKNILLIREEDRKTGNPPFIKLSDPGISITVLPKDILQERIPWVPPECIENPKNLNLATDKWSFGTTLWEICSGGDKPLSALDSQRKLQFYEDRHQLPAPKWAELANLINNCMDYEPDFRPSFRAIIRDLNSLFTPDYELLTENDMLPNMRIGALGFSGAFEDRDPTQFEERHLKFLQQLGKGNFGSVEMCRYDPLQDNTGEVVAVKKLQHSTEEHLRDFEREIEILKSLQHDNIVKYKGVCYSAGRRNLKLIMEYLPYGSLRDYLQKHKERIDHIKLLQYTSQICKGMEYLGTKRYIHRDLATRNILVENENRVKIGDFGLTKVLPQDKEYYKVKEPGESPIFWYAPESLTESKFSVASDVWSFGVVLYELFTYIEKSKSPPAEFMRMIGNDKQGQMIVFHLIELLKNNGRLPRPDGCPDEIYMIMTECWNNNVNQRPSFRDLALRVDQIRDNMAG
JAK3 kinase, sequence (P52333 whole entry): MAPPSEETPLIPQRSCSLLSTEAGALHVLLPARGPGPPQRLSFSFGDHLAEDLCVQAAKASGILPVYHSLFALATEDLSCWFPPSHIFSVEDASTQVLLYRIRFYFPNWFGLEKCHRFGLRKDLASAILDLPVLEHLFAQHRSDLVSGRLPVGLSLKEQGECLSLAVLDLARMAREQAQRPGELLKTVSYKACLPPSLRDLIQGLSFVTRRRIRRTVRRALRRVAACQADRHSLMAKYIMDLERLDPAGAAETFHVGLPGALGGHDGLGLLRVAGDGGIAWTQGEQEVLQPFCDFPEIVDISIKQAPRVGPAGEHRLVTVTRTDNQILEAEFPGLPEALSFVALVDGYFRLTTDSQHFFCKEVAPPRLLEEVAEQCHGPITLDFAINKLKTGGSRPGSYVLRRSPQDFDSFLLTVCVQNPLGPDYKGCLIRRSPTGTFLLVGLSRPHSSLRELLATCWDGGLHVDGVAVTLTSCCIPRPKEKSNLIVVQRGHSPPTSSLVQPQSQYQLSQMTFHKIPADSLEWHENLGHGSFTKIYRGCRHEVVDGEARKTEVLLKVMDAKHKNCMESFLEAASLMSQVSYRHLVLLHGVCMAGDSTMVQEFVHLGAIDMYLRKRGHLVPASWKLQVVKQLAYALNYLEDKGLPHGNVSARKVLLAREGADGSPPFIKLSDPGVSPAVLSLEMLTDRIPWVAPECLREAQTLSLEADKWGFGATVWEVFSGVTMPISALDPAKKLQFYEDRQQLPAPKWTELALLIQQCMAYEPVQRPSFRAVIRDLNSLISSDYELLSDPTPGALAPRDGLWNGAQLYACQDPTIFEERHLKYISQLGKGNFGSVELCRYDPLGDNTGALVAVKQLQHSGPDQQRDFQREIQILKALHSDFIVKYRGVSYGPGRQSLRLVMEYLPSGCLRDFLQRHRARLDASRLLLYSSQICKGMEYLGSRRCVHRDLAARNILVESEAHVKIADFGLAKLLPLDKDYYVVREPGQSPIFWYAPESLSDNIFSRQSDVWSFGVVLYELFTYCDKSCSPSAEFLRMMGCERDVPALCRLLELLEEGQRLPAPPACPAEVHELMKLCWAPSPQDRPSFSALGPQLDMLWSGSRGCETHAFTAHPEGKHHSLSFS
JAK1 kinase, sequence (P23458 whole entry): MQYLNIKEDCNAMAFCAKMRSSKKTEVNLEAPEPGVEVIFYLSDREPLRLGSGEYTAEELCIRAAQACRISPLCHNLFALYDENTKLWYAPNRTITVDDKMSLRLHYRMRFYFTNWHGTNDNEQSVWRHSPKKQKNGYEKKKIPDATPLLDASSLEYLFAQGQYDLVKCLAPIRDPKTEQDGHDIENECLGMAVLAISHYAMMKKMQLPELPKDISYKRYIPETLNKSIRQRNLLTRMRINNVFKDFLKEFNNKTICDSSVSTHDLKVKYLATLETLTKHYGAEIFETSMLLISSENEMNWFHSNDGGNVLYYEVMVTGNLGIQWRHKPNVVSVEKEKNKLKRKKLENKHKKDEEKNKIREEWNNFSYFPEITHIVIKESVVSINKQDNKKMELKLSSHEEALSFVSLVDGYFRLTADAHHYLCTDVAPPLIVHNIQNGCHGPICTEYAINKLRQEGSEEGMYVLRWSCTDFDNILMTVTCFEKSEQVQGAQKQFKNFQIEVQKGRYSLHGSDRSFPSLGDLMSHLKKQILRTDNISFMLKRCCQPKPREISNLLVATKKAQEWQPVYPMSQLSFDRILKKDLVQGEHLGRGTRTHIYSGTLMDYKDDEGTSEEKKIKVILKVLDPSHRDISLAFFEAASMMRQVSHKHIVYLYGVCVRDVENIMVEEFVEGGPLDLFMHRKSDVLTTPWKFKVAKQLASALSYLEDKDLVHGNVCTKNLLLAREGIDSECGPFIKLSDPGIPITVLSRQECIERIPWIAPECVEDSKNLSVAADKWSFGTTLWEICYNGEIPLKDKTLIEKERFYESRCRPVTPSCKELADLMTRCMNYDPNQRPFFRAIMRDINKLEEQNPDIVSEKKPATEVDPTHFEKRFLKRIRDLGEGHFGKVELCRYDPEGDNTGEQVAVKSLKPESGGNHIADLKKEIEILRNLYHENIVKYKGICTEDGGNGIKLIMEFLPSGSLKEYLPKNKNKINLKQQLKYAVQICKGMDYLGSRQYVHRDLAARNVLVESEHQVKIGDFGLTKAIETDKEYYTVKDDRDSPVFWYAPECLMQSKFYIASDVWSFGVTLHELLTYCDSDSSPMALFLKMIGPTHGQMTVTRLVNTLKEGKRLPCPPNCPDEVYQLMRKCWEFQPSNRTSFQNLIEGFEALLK

For `CN(c1ncnc2[nH]ccc12)[C@@H]1C[C@H]2CN(C(=O)CO)C[C@@]2(C)C1` (racemic) [Example 14, 2-hydroxy-1-((3aS,5R,6aR/3aS,5R,6aR)-3a-methyl-5-(methyl(7H-pyrrolo[2,3-d]pyrimidin-4-yl)amino)hexahydrocyclopenta[c]pyrrol-2(1H)-yl)ethanone], the IC50 in data set [1] stood at 30 nM; in data set [2], 712 nM.
With `CN(c1ncnc2[nH]ccc12)[C@H]1C[C@@H]2CN(C(=O)CO)C[C@@H]2C1` [Example 6, 2-Hydroxy-1-((3aR,5S,6aS)-5-(methyl(7H-pyrrolo[2,3-d]pyrimidin-4-yl)amino)hexahydrocyclopenta[c]pyrrol-2(1H)-yl)ethanone], in data set [3], the Vd/F came out at 34.5 ± 21 L/kg, the AUC is 2210 ± 1470 ng·h/mL, the CL/F is 110 ± 71 mL/min/kg and the half-life is 4.01 ± 1.52 h. Also, the Cmax in data set [3] was 1230 ± 549 ng/mL. Moreover, the MRT in data set [3] (read-out: Mean Residence Time MRT) came to 2.19 ± 0.6 h. Also, the IC50 in data set [4] was found to be 11 nM. Further, the IC50 in data set [1] came out at 5 nM. In addition, in data set [5], the IC50 was 45 nM.
Regarding `CN(c1ncnc2[nH]ccc12)[C@H]1C[C@H]2CNC(=O)C[C@H]2C1` [Example 40, (4aR,6R,7aR)-6-(Methyl(7H-pyrrolo[2,3-d]pyrimidin-4-yl)amino) hexahydro-1H-cyclopenta[c]pyridin-3(2H)-one], in data set [3], the Vd/F came out at 6.99 ± 3.39 L/kg, the AUC was 5230 ± 1170 ng·h/mL, the CL/F was determined as 33.2 ± 7.7 mL/min/kg and the half-life was 2.72 ± 1.82 h. Also, in data set [3], the Cmax turned out to be 1520 ± 317 ng/mL. Besides, the IC50 in data set [6] was 399 nM. In addition, the IC50 in data set [5] stood at 23 nM.
For `CN(c1ncnc2[nH]ccc12)[C@H]1C[C@@H]2CN(C(=O)Nc3nc(CO)ns3)C[C@@H]2C1` [Example 50, (3aR,5S,6aS)—N-(3-(Hydroxymethyl)-1,2,4-thiadiazol-5-yl)-5-(methyl(7H-pyrrolo[2,3-d]pyrimidin-4-yl)amino)hexahydrocyclopenta[c]pyrrole-2(1H)-carboxamide], the values for the IC50 in data set [4], in data set [1] and in data set [5] were 201 nM, 0.5 nM and 7 nM, respectively.
Taken in the same sequence, the figures for `CN(c1ncnc2[nH]ccc12)[C@H]1C[C@@H]2CN(CC(F)(F)F)C[C@@H]2C1` [Example 56, N-methyl-N-((3aR,5S,6aS)-2-(2,2,2-trifluoroethyl)octahydrocyclopenta[c]pyrrol-5-yl)-7H-pyrrolo[2,3-d]pyrimidin-4-amine] were 75 nM, 11 nM and 32 nM.
In the case of `CN(c1ncnc2[nH]ccc12)[C@@H]1C[C@@H]2CN(CC#N)C[C@@H]2C1` [Example 69, 2-((3aR,5R,6aS)-5-(methyl(7H-pyrrolo[2,3-d]pyrimidin-4-yl)amino)hexahydrocyclopenta[c]pyrrol-2(1H)-yl)acetonitrile], the IC50 is 20 nM in data set [4], 5 nM in data set [1] and 4 nM in data set [5].
As to `CN(c1ncnc2[nH]ccc12)[C@H]1C[C@@H]2CN(C(=O)[C@H](O)C(F)(F)F)C[C@@H]2C1` [Example 94, (S)-3,3,3-trifluoro-2-hydroxy-1-((3aR,5R,6aS)-5-(methyl(7H-pyrrolo[2,3-d]pyrimidin-4-yl)amino)hexahydrocyclopenta[c]pyrrol-2(1H)-yl)propan-1-one], the IC50 in data set [6] (Homo sapiens) was 152 nM; in data set [2] it was 127 nM.
Regarding `CN(c1ncnc2[nH]ccc12)[C@H]1C[C@@H]2CN(C(=O)OCC(F)(F)F)C[C@@H]2C1` [Example 111, (3aR,5S,6aS)-2,2,2-trifluoroethyl 5-(methyl(7H-pyrrolo[2,3-d]pyrimidin-4-yl)amino)hexahydrocyclopenta[c]pyrrole-2(1H)-carboxylate], the results for the IC50 in data set [4], in data set [1] and in data set [5] were 101 nM, 96 nM and 146 nM, respectively.
With `CN(c1ncnc2[nH]cc(F)c12)[C@H]1C[C@@H]2CN(C(=O)CO)C[C@@H]2C1` [Example 128, 1-((3aR,5S,6aS)-5-((5-fluoro-7H-pyrrolo[2,3-d]pyrimidin-4-yl)(methyl)amino)hexahydrocyclopenta[c]pyrrol-2(1H)-yl)-2-hydroxyethanone], in data set [3], the Vd/F came to 11.4 ± 4.15 L/kg, the AUC came to 2320 ± 1030 ng·h/mL, the CL/F came to 84.3 ± 37.8 mL/min/kg and the half-life was 1.62 ± 0.28 h. In addition, the Cmax in data set [3] came out at 1420 ± 150 ng/mL. Further, the IC50 in data set [4] is 4 nM. Moreover, the IC50 in data set [1] came out at 13 nM.
In the case of `CN(c1ncnc2[nH]c(F)cc12)[C@H]1C[C@@H]2CN(C(=O)CO)C[C@@H]2C1` [Example 129, 1-((3aR,5S,6aS)-5-((6-fluoro-7H-pyrrolo[2,3-d]pyrimidin-4-yl)(methyl)amino)hexahydrocyclopenta[c]pyrrol-2(1H)-yl)-2-hydroxyethanone], the IC50 was 17 nM in data set [4] and 36 nM in data set [1].
For `CN(c1ncnc2[nH]ccc12)[C@H]1C[C@H]2CNC(=O)C[C@H]2C1` [Example 147, (4aR,6R,7aR)-6-(methyl(7H-pyrrolo[2,3-d]pyrimidin-4-yl)amino)hexahydro-1H-cyclopenta[c]pyridin-3(2H)-one], the IC50 was found to be 15 nM in data set [6] and 5 nM in data set [5].
For `CN(c1ncnc2[nH]ccc12)[C@@H]1CC2CNC(=O)CC2C1` (stereo partly drawn) [Example 148, (6S)-6-(methyl(7H-pyrrolo[2,3-d]pyrimidin-4-yl)amino)hexahydro-1H-cyclopenta[c]pyridin-3(2H)-one], in data set [3], the Vd/F came out at 6.99 ± 3.39 L/kg, the AUC was determined as 5230 ± 1170 ng·h/mL, the CL/F is 33.2 ± 7.7 mL/min/kg and the half-life is 2.72 ± 1.82 h. Moreover, the Cmax in data set [3] was 1520 ± 317 ng/mL. The compound further gave an IC50 in data set [6] (Homo sapiens, TF-1, 72 h) of 399 nM. The IC50 in data set [5] came out at 23 nM.
As for `CC(C)C(=O)N1CC[C@H]2C[C@@H](N(C)c3ncnc4[nH]ccc34)C[C@H]2C1` [Example 151, 2-methyl-1-((4aS,6R,7aR)-6-(methyl(7H-pyrrolo[2,3-d]pyrimidin-4-yl)amino)hexahydro-1H-cyclopenta[c]pyridin-2(3H)-yl)propan-1-one], the IC50 in data set [4] worked out at 203 nM; in data set [1], 106 nM; in data set [5], 127 nM.
